Assays:
[1] = logP determination by HPLC on reversed-phase column (EEC-Directive 79/831 Annex V.A8); format: physicochemical; conditions: reversed-phase C 18, 43° C., acidic range (0.1% aqueous phosphoric acid/acetonitrile gradient); for chromatographic logP: reversed-phase HPLC column (C 18)
Method: The logP values given in table 1 were determined in accordance with EEC-Directive 79/831 Annex V.A8 by HPLC (High Performance Liquid Chromatography) on a reversed-phase column (C 18). Temperature: 43° C. Mobile phases for the determination in the acidic range: 0.1% aqueous phosphoric acid, acetonitrile; linear gradient from 10% acetonitrile to 90% acetonitrile. Calibration was carried out using unbranched alkan-2-ones (having 3 to 16 carbon atoms) whose logP values are known (determination of the lopP values by the retention times using linear interpolation between two successive alkanones).

Meloidogyne incognita = test: Meloidogyne test (gall formation on lettuce roots); format: in vivo; conditions: for nematizidal activity (formation of galls): Meloidogyne incognita egg/larvae, lettuce in sand, result in words
Method: • Solvent: 7 parts by weight of dimethylformamide • Emulsifier: 2 parts by weight of alkylaryl polyglycol ether To produce a suitable preparation of active compound, 1 part by weight of active compound is mixed with the stated amount of solvent and emulsifier, and the concentrate is diluted with water to the desired concentration. Containers are filled with sand, solution of active compound, Meloidogyne incognita egg/larvae suspension and lettuce seeds. The lettuce seeds germinate and the plants develop. On the roots, galls are formed. After the desired period of time, the nematizidal activity is the determined in percent by the formation of galls. 100% means that no galls were found; 0% means that the number of galls on the treated plants corresponds to that of the untreated control. […] The efficacy of the compounds is stated as kill rate in %.

Spodoptera frugiperda = Spodoptera frugiperda test (dipped cabbage leaves); format: in vivo; conditions: Spodoptera frugiperda caterpillars on cabbage leaves; result in words
Method: [table] To produce a suitable preparation of active compound, 1 part by weight of active compound is mixed with the stated amount of solvent and emulsifier, and the concentrate is diluted with water to the desired concentration. Cabbage leaves (Brassica oleracea) are treated by being dipped into the preparation of active compound of the desired concentration and are populated with caterpillars of the Heerwurms (Spodoptera frugiperda) while the leaves are still moist. After the desired period of time, the kill in % is determined. 100% means that all caterpillars have been killed. 0% means that none of the caterpillars have been killed.

Phaedon cochleariae = test: Phaedon larvae test (dipped cabbage leaves); format: in vivo; conditions: Phaedon cochleariae larvae on cabbage leaves; result in words
Method: • Solvent: 7 parts by weight of dimethylformamide • Emulsifier: 2 parts by weight of alkylaryl polyglycol ether To produce a suitable preparation of active compound, 1 part by weight of active compound is mixed with the stated amounts of solvent and emulsifier, and the concentrate is diluted with emulsifier-containing water to the desired concentration. Cabbage leaves (Brassica oleracea) are treated by being dipped into the preparation of active compound of the desired concentration and are populated with larvae of the mustard beetle (Phaedon cochleariae) while the leaves are still moist. After the desired period of time, the kill in % is determined. 100% means that all beetle larvae have been killed. 0% means that none of the beetle larvae have been killed.

chromatographic logP [1]	Compound	nematizidal activity (formation of galls) (Meloidogyne incognita)	also measured
2.56	CC/C(=N\C#N)NC(C)c1ccc(Cl)cc1Cl (stereo not drawn) [Example 1, N′-Cyano-N-[1-(2,4-dichlorophenyl)ethyl]propaneimidamide]		
2.8	CC/C(=N\C#N)N(C)C(C)c1ccc(Cl)cc1Cl (stereo not drawn) [Example 2, N′-Cyano-N-[1-(2,4-dichlorophenyl)ethyl]-N-methylpropaneimidamide]		melting point: 148 °C
	C/C(=N\C#N)N(C)C(C)c1ccc(Cl)cc1F (stereo not drawn) [Example 3]	highly effective	
	CC/C(=N\C#N)N(C)C(C)c1ccc(Cl)cc1F (stereo not drawn) [Example 4]	highly effective	
	CC/C(=N\C#N)N(C)C(C)c1cc(F)c(Cl)cc1F (stereo not drawn) [Example 5]	highly effective	kill of caterpillars (Spodoptera frugiperda): highly effective
	C/C(=N\C#N)N(C)C(C)c1cc(F)c(Cl)cc1F (stereo not drawn) [Example 6]	highly effective	
2.4	C/C(=N\C#N)N(C)C(C)c1ccc(Cl)c(F)c1 (stereo not drawn) [Example 7]	highly effective	
2.61	CC/C(=N\C#N)N(C)C(C)c1ccc(Cl)c(F)c1 (stereo not drawn) [Example 8]	highly effective	
	CC/C(=N\C#N)N(C)C(C)c1cc(F)c(Cl)cc1Cl (stereo not drawn) [Example 9]	highly effective	kill of caterpillars (Spodoptera frugiperda): highly effective
2.55	CC/C(=N\C#N)N(C)[C@@H](C)c1ccc(Cl)cc1F [Example 10]	highly effective	
2.55	CC/C(=N\C#N)N(C)[C@H](C)c1ccc(Cl)cc1F [Example 11]	highly effective	
2.59	CC/C(=N\C#N)N(C)[C@@H](C)c1cc(F)c(Cl)cc1F [Example 12]	highly effective	
2.59	CC/C(=N\C#N)N(C)[C@H](C)c1cc(F)c(Cl)cc1F [Example 13]	highly effective	
2.68	C/C(=N\C#N)N(C)C(C)c1ccc(Cl)c(Cl)c1 (stereo not drawn) [Example 14]	highly effective	
2.9	CC/C(=N\C#N)N(C)C(C)c1ccc(Cl)c(Cl)c1 (stereo not drawn) [Example 15]	highly effective	
2.31	CC/C(=N\C#N)N(C)C(C)c1cc(F)c(F)cc1F (stereo not drawn) [Example 16]		
2.58	C/C(=N\C#N)N(C)C(C)c1ccc(Cl)cc1Cl (stereo not drawn) [Example 17]	highly effective	
	CC/C(=N\C#N)N(C)C(C)c1ccc(Cl)c(Cl)c1Cl (stereo not drawn) [Example 18]	highly effective	

chromatographic logP [1]	Compound	nematizidal activity (formation of galls) (Meloidogyne incognita)	also measured
2.9	C/C(=N\C#N)N(C)C(C)c1cc(Cl)c(Cl)cc1Cl (stereo not drawn) [Example 19]	highly effective	kill of caterpillars (Spodoptera frugiperda): highly effective; kill of beetle larvae (Phaedon cochleariae): highly effective
3.18	CC/C(=N\C#N)N(C)C(C)c1cc(Cl)c(Cl)cc1Cl (stereo not drawn) [Example 20]	highly effective	
2.94	CC/C(=N\C#N)N(C)C(C)c1ccc(Cl)c(Br)c1 (stereo not drawn) [Example 21]		
2.19	CC/C(=N\C#N)N(C)C(C)c1c(F)cccc1Cl (stereo not drawn) [Example 22]	highly effective	
	CC/C(=N\C#N)N(C)C(C)c1c(F)cccc1Cl (stereo not drawn) [Example 23]	highly effective	logP [1]: logP: 2.40
2.46	C/C(=N\C#N)N(C)C(C)c1cc(Cl)ccc1Cl (stereo not drawn) [Example 24]	highly effective	
2.94	CC/C(=N\C#N)N(C)C(C)c1ccc(Br)c(Cl)c1 (stereo not drawn) [Example 25]	highly effective	
2.09	C/C(=N\C#N)N(C)C(C)c1ccc(F)c(F)c1 (stereo not drawn) [Example 26]	highly effective	
2.32	CC/C(=N\C#N)N(C)C(C)c1ccc(F)c(F)c1 (stereo not drawn) [Example 27]	highly effective	
2.37	C/C(=N\C#N)N(C)C(C)c1cccc(Cl)c1Cl (stereo not drawn) [Example 28]	highly effective	
2.59	CC/C(=N\C#N)N(C)C(C)c1cccc(Cl)c1Cl (stereo not drawn) [Example 29]	highly effective	
2.66	CC/C(=N\C#N)N(C)C(C)c1cc(F)c(Br)cc1F (stereo not drawn) [Example 30]		
	CC/C(=N\C#N)N(C)C(C)c1ccc(Cl)cc1Cl (stereo not drawn) [drawing 44]		efficacy stated as kill rate in % (Meloidogyne incognita; 20 ppm active compound): 20 ppm: 100%
	CC/C(=N\C#N)NC(C)c1ccc(Cl)cc1Cl (stereo not drawn) [drawing 45, reference compound]		efficacy stated as kill rate in % (Meloidogyne incognita; 20 ppm active compound): 20 ppm: 0%
	CC/C(=N\C#N)N(C)C(C)c1ccc(Cl)c(F)c1 (stereo not drawn) [drawing 46]		efficacy stated as kill rate in % (Meloidogyne incognita; 4 ppm active compound): 4 ppm: 100%
	C/C(=N\C#N)N(C)C(C)c1ccc(Cl)cc1Cl (stereo not drawn) [drawing 48]		efficacy stated as kill rate in % (Meloidogyne incognita; 4 ppm active compound): 4 ppm: 100%
	CC/C(=N\C#N)NC(C)c1ccc(Cl)c(F)c1 (stereo not drawn) [reference compound]		efficacy stated as kill rate in % (Meloidogyne incognita; 4 ppm active compound): 4 ppm: 0%
	C/C(=N\C#N)NC(C)c1ccc(Cl)cc1Cl (stereo not drawn) [reference compound]		efficacy stated as kill rate in % (Meloidogyne incognita; 5 ppm active compound): 5 ppm: 0%

From patent US7365098B2, “N'-cyano-N-methyl-imidamide derivatives” (Bayer CropScience AG, priority 2002, dated 2008)
